Test results from patent US9867833B2, “Serine/threonine kinase inhibitors” (GENENTECH, INC., priority 2013, dated 2018).

Biological target: human ERK-2 (Mitogen Activated Kinase 1) (Homo sapiens (Human), UniProt P28482)
Assay: ERK-2 Enzymatic Assay
Type: biochemical
Conditions: human ERK-2 enzyme 5 nM, 25 μM ATP, S/T17 peptide substrate; isomer = configuration of CR2R3
Outline: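 Recombinant human ERK-2 (aa 8-360, N-terminal 6-His, E. coli) with 3-fold serially diluted compound. Per-well rates from linear fits converted to percent of control; IC50 by four-parameter fit.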

Chain of human ERK-2 (Mitogen Activated Kinase 1) (P28482 8-360): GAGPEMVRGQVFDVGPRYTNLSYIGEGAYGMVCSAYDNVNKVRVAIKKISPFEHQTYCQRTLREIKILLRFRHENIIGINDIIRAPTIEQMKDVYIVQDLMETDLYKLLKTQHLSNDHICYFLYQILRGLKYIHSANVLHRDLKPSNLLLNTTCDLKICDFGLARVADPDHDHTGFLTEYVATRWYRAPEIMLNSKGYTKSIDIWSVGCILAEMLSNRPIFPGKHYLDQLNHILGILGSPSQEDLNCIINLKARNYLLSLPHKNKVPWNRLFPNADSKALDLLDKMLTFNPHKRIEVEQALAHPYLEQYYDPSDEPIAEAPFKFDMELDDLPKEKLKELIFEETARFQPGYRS

| SMILES | IC50 |
| --- | --- |
| COc1ccc(C[C@H]2NC(=O)N(C)c3cc(-c4ccnc(Nc5ccnn5C)c4)cc4nnc2n34)cc1 [Compound I-26, (R)-9-(4-methoxybenzyl)-6-methyl-4-(2-((1-methyl-1H-pyrazol-5-yl)amino)pyridin-4-yl)-8,9-dihydro-1,2,2a^1,6,8-pentaazabenzo[cd]azulen-7(6H)-one] | 0.39 nM |
| CN1C(=O)N(Cc2ccccc2)c2nnc3cc(-c4ccnc(Nc5ccnn5C)n4)cc1n23 [Compound I-28, 3-benzyl-5-methyl-7-(2-((1-methyl-1H-pyrazol-5-yl)amino)pyrimidin-4-yl)-3H-1,2,2a^1,3,5-pentaazaacenaphthylen-4(5H)-one] | 0.02 nM |
| CN1C(=O)N[C@H](Cc2cccc(F)c2)c2nnc3cc(-c4ccnc(Nc5ccnn5C)n4)cc1n23 [Compound I-39, (R)-9-(3-fluorobenzyl)-6-methyl-4-(2-((1-methyl-1H-pyrazol-5-yl)amino)pyrimidin-4-yl)-8,9-dihydro-1,2,2a^1,6,8-pentaazabenzo[cd]azulen-7(6H)-one] | 0.215 nM |
| CN1C(=O)N[C@H](CC2CC2)c2nnc3cc(-c4ccnc(Nc5ccnn5C)n4)cc1n23 [Compound I-51, (R)-9-(cyclopropylmethyl)-6-methyl-4-(2-((1-methyl-1H-pyrazol-5-yl)amino)pyrimidin-4-yl)-8,9-dihydro-1,2,2a^1,6,8-pentaazabenzo[cd]azulen-7(6H)-one] | 2.34 nM |
| Cn1nccc1Nc1nccc(-c2cc3n4c(nnc4c2)C(Cn2cc(C(F)(F)F)cn2)CCO3)n1 (stereo not drawn) [Compound I-73, N-(1-methyl-1H-pyrazol-5-yl)-4-(9-((4-(trifluoromethyl)-1H-pyrazol-1-yl)methyl)-8,9-dihydro-7H-6-oxa-1,2,2a^1-triazabenzo[cd]azulen-4-yl)pyrimidin-2-amine] | < 0.02 nM |
| CN1C(=O)CC(Cc2ccc(F)cc2)c2nnc3cc(-c4ccnc(Nc5ccnn5C)n4)cc1n23 (stereo not drawn) [Compound I-79, 9-(4-fluorobenzyl)-6-methyl-4-(2-((1-methyl-1H-pyrazol-5-yl)amino)pyrimidin-4-yl)-8,9-dihydro-1,2,2a^1,6-tetraazabenzo[cd]azulen-7(6H)-one] | 17 nM |
| CN1C(=O)C[C@H](Cc2cccc(Cl)c2)c2nnc3cc(-c4ccnc(Nc5ccnn5C)n4)cc1n23 [Compound I-80, (S)-9-(3-chlorobenzyl)-6-methyl-4-(2-((1-methyl-1H-pyrazol-5-yl)amino)pyrimidin-4-yl)-8,9-dihydro-1,2,2a^1,6-tetraazabenzo[cd]azulen-7(6H)-one] | < 0.02 nM |
| COc1cccc(CC2COc3cc(-c4ccnc(Nc5ccnn5C)n4)cc4nnc2n34)c1 (stereo not drawn) [Compound I-81, 4-(3-(3-methoxybenzyl)-3,4-dihydro-5-oxa-1,2,2a^1-triazaacenaphthylen-7-yl)-N-(1-methyl-1H-pyrazol-5-yl)pyrimidin-2-amine] | < 0.02 nM |
| Cn1nccc1Nc1cc(-c2cc3n4c(nnc4c2)C(Cc2ccc(F)c(Cl)c2)CO3)ccn1 (stereo not drawn) [Compound I-83, 4-(3-(3-Chloro-4-fluorobenzyl)-3,4-dihydro-5-oxa-1,2,2a^1-triazaacenaphthylen-7-yl)-N-(1-methyl-1H-pyrazol-5-yl)pyridin-2-amine] | 0.111 nM |
| CN1C(=O)C[C@@H](Cc2ccc(Cl)cn2)c2nnc3cc(-c4ccnc(Nc5ccnn5C)c4)cc1n23 [Compound I-94, (R)-9-((5-chloropyridin-2-yl)methyl)-6-methyl-4-(2-((1-methyl-1H-pyrazol-5-yl)amino)pyridin-4-yl)-8,9-dihydro-1,2,2a^1,6-tetraazabenzo[cd]azulen-7(6H)-one] | 598 nM |
| Cn1nccc1Nc1nccc(-c2cc3n4c(nnc4c2)C(C2CC2)CO3)n1 (stereo not drawn) [Compound I-95, 4-(3-cyclopropyl-3,4-dihydro-5-oxa-1,2,2a^1-triazaacenaphthylen-7-yl)-N-(1-methyl-1H-pyrazol-5-yl)pyrimidin-2-amine] | 0.751 nM |
| Cn1nccc1Nc1cc(-c2cc3n4c(nnc4c2)C(Cc2cccc(Cl)c2)CO3)ccn1 (stereo not drawn) [Compound I-96, 4-(3-(3-chlorobenzyl)-3,4-dihydro-5-oxa-1,2,2a^1-triazaacenaphthylen-7-yl)-N-(1-methyl-1H-pyrazol-5-yl)pyridin-2-amine] | 0.149 nM |
